Twelve molecules from US7875647B2, “Heteroaryl-pyrazole derivatives as cannabinoid CB1 receptor antagonists” (Green Cross Corporation, priority 2006, dated 2011) can be followed below.

What is called IC50 is the concentration needed to halve the response being measured.

T1 sequence (P20272 whole entry): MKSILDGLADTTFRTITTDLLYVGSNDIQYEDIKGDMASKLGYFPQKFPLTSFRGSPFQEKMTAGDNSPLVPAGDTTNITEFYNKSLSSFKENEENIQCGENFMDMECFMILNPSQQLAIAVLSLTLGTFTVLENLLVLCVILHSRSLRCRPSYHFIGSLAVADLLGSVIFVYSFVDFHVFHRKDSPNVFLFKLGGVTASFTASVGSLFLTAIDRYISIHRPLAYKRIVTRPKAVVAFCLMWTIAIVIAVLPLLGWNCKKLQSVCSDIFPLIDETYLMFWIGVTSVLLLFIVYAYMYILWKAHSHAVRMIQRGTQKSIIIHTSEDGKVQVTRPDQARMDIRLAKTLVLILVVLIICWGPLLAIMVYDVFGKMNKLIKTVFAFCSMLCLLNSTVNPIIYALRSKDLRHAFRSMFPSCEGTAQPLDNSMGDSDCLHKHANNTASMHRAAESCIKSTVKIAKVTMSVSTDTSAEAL

One assay addresses T1, Cannabinoid-1 receptor (CB1R) (Rattus norvegicus, UniProt P20272).
T1 construct: The tissue obtained from the brain of SD rats was homogenized; from tissue; host or cells: brain of SD rats (membrane pellet of the homogenate)
The experiment in a line: Cannabinoid-1 receptor (CB1R) binding affinity assay ([3H]CP-55940, rat CB-1 receptor binding protocol). The conditions noted are these: IC50(nM), brain tissue of SD rats, [3H]CP-55940, 30° C. 60 min.
`C=Cc1c(-c2nnc(C(C)(C)C)o2)nn(-c2ccc(Cl)cc2Cl)c1-c1ccc(Br)cc1` [Example 228, 2-(5-(4-bromophenyl)-1-(2,4-dichlorophenyl)-4-vinyl-1H-pyrazol-3-yl)-5-tert-butyl-1,3,4-oxadiazole] displayed an IC50 of 16.6 nM.

In turn, `CC(C)(C)c1nnc(-c2nn(-c3ccc(Cl)cc3Cl)c(-c3ccc(Cl)cc3)c2C2CC2)s1` [Example 441, 2-tert-butyl-5-(5-(4-chlorophenyl)-4-cyclopropyl-1-(2,4-dichlorophenyl)-1H-pyrazol-3-yl)-1,3,4-thiadiazole] returned an IC50 of 29.8 nM.

Staying with this assay, now noted: brain tissue of SD rats, [3H]CP-55940, 30° C. 60 min; read-out: IC50.
`CCC(C)c1nnc(-c2nn(-c3ccc(Cl)cc3)c(-c3ccc(Br)cc3)c2C)s1` (stereo not drawn) [Example 418, 2-(5-(4-bromophenyl)-1-(4-chlorophenyl)-4-methyl-1H-pyrazol-3-yl)-5-sec-butyl-1,3,4-thiadiazole]: the IC50 is 465 nM.

For the molecule `CC(C)c1c(-c2nnc(C3(c4ccc(Cl)cc4)CCC3)o2)nn(-c2ccc(Cl)cc2Cl)c1-c1ccc(Cl)cc1` [Example 182, 2-(5-(4-chlorophenyl)-1-(2,4-dichlorophenyl)-4-isopropyl-1H-pyrazol-3-yl)-5-(1-(4-chlorophenyl)cyclobutyl)-1,3,4-oxadiazole], the IC50 is 22.5 nM.

As to `Cc1c(-c2nnc(CC3CCCCC3)o2)nn(-c2ccc(Cl)cc2Cl)c1-c1ccc(Br)cc1` [Example 56, 2-(5-(4-bromophenyl)-1-(2,4-dichlorophenyl)-4-methyl-1H-pyrazol-3-yl)-5-(cyclohexylmethyl)-1,3,4-oxadiazole], the IC50 is 37.6 nM.

For `CC(F)c1c(-c2nnc(C(C)(C)C)o2)nn(-c2ccc(Cl)cc2Cl)c1-c1ccc(Br)cc1` (stereo not drawn) [Example 211, 2-(5-(4-bromophenyl)-1-(2,4-dichlorophenyl)-4-(1-fluoroethyl)-1H-pyrazol-3-yl)-5-tert-butyl-1,3,4-oxadiazole], the IC50 worked out at 12.1 nM.

For the molecule `Cc1c(-c2nnc(CC3CCCC3)o2)nn(-c2ccc(Cl)cc2Cl)c1-c1ccc(Cl)cc1` [Example 22, 2-(5-(4-Chlorophenyl)-1-(2,4-dichlorophenyl)-4-methyl-1H-pyrazol-3-yl)-5-(cyclopentylmethyl)-1,3,4-oxadiazole], the IC50 was determined as 35.7 nM.

As for `CCOC(C)(C)c1nnc(-c2nn(-c3ccc(Cl)cc3Cl)c(-c3ccc(Cl)cc3)c2C)s1` [Example 437, 2-(5-(4-chlorophenyl)-1-(2,4-dichlorophenyl)-4-methyl-1H-pyrazol-3-yl)-5-(2-ethoxypropan-2-yl)-1,3,4-thiadiazole], the concentration for half-maximal inhibition (IC50) stood at 53.6 nM.

Take `CCn1nc(-c2nn(-c3ccc(Cl)cc3Cl)c(-c3ccc(Cl)cc3)c2C)nc1C(C)C` [Example 635, 3-(5-(4-chlorophenyl)-1-(2,4-dichlorophenyl)-4-methyl-1H-pyrazol-3-yl)-5-isopropyl-1-ethyl-1H-1,2,4-triazole]: the IC50 was found to be 712 nM.

In the case of `COC(=O)NCc1c(-c2nnc(C(C)(C)C)o2)nn(-c2ccc(Cl)cc2Cl)c1-c1ccc(Cl)cc1` [Example 232, Methyl (3-(5-tert-butyl-1,3,4-oxadiazol-2-yl)-5-(4-chlorophenyl)-1-(2,4-dichlorophenyl)-1H-pyrazol-4-yl)methylcarbamate], the IC50 came to 15.6 nM.

Regarding `CC(C)(c1ccc(Cl)cc1)c1nnc(-c2nn(-c3ccc(Cl)cc3Cl)c(-c3ccc(Cl)cc3)c2Br)s1` [Example 546, 2-(4-bromo-5-(4-chlorophenyl)-1-(2,4-dichlorophenyl)-1H-pyrazol-3-yl)-5-(2-(4-chlorophenyl)propan-2-yl)-1,3,4-thiadiazole], the IC50 amounted to 29.5 nM.

`CCC(C)(C)c1nnc(-c2nn(-c3ccc(Cl)cc3Cl)c(-c3ccc(Cl)cc3)c2Cl)o1` [Example 334, 2-(4-chloro-5-(4-chlorophenyl)-1-(2,4-dichlorophenyl)-1H-pyrazol-3-yl)-5-tert-pentyl-1,3,4-oxadiazole]: the IC50 is 51 nM.
